{"source": "paper PMC3705364", "about": "“Biochemical and Electrophysiological Characterization of Two Sea Anemone Type 1 Potassium Toxins from a Geographically Distant Population of Bunodosoma caissarum” (Marine Drugs, 2013)", "key": {"rKV1.6": {"biological_target": "T1, rKV1.6 (Rattus norvegicus, UniProt P17659)", "T1 construct": "expressed in transfected cells; host or cells: Xenopus laevis oocytes injected with cRNA", "T1 sequence (P17659 whole entry)": "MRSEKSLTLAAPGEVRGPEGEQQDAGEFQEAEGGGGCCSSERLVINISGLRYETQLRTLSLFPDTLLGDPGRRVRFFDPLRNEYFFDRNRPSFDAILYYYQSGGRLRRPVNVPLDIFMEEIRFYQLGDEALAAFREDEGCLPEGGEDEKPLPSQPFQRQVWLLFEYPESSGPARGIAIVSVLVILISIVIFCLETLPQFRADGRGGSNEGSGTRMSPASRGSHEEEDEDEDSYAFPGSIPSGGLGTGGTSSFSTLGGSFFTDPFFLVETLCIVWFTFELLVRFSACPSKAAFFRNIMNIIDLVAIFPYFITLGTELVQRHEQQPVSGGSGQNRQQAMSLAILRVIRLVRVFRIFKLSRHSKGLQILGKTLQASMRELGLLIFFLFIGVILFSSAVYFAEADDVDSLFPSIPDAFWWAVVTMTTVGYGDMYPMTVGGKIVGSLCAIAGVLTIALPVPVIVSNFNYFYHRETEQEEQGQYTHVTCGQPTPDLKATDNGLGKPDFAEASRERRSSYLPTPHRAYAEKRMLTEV", "experiment": "Two-electrode voltage-clamp, X. laevis oocytes expressing rKV1.6", "type": "cell-based", "settings": "mean ± standard error", "experimental": "(§1) Stage V–VI of X. laevis oocytes were harvested by partial ovariectomy under anesthesia (3-aminobenzoic acid ethyl ester methanesulfonate salt, 0.5 g/L from Sigma-Aldrich Co., Saint Louis, MO, USA). The oocytes were defolliculated for 2 h by treatment with 2 mg/mL collagenase (Sigma-Aldrich Co., Saint Louis, MO, USA) in Ca^2+ free ND96 solution (in mM: 96 NaCl; 2 KCl; 1 MgCl2; 5 HEPES adjusted pH 7.4). For the expression of KV channels (KV1.1–KV1.6, KV2.1, KV3.1, KV4.2, KV4.3, hERG and the insect channel Shaker IR), the linearized plasmids were transcribed using the T7 or SP6 mMessage-mMachine transcription kit (Ambion, Austin, TX, USA). Oocytes were injected with 50 nL of cRNA at a concentration of 1 ng/nL using a microinjector (Drummond Scientific, Broomall, PA, USA). The oocytes were maintained in a ND96 solution (in mM: 96 NaCl, 2 KCl, 1.8 CaCl2, 2 MgCl2 and 5 HEPES; adjusted pH 7.4), supplemented with 50 µg/mL gentamicin sulfate.\n(§2) Two-electrode voltage-clamp recordings were performed at room temperature (18–22 °C) using a Geneclamp 500 amplifier (Molecular Devices, Sunnyvale, CA, USA) controlled by a pClamp data acquisition system (Axon Instruments, Union City, CA, USA). Whole-cell currents from oocytes were recorded from 1 to 3 days after injection. Bath solution was the same ND96 solution described above. Voltage and current electrodes were filled with 3 M KCl. Resistances of both electrodes were kept between 0.8 and 1.0 ΩM. The elicited currents were filtered at 500 Hz using a four-pole lowpass Bessel filter. Leak subtraction was performed using a −P/4 protocol. KV1.1–KV1.6 and Shaker IR currents were evoked by 500 ms depolarizations to 0 mV, followed by a 500 ms pulse to −50 mV, from a holding potential of −90 mV. Current traces of hERG channels were elicited by applying a +40 mV prepulse for 2 s, followed by a step to −120 mV for 2 s. KV3.1, KV 4.2 and KV4.3 currents were elicited by 500 ms pulses to +20 mV from a holding potential of −90 mV. To assess the concentration-response relationships, data were fitted with the Hill equation: y = 100/[1 + (EC50/[toxin])h] (1) where y is the amplitude of the toxin-induced effect, EC50 is the toxin concentration at half maximal efficacy, [toxin] is the toxin concentration and h is the Hill coefficient. In order to investigate the current-voltage relationship, current traces were evoked by 10 mV depolarization steps from a holding potential of −90 mV. […]\n(§3) Comparison of two sample means was made using a paired Student’s t test (p < 0.05). […] All data were analyzed using Clampfit 10.3 (Molecular Devices, Sunnyvale, CA, USA) and Origin 7.5 software (Origin Lab., Northampton, MA, USA)."}, "Shaker IR": {"biological_target": "T2, Shaker IR (Drosophila melanogaster, UniProt P08510, DEL6-46)", "T2 construct": "expressed in transfected cells; host or cells: Xenopus laevis oocytes injected with cRNA", "T2 sequence (P08510 with tags, fused parts or gaps DEL6-46)": "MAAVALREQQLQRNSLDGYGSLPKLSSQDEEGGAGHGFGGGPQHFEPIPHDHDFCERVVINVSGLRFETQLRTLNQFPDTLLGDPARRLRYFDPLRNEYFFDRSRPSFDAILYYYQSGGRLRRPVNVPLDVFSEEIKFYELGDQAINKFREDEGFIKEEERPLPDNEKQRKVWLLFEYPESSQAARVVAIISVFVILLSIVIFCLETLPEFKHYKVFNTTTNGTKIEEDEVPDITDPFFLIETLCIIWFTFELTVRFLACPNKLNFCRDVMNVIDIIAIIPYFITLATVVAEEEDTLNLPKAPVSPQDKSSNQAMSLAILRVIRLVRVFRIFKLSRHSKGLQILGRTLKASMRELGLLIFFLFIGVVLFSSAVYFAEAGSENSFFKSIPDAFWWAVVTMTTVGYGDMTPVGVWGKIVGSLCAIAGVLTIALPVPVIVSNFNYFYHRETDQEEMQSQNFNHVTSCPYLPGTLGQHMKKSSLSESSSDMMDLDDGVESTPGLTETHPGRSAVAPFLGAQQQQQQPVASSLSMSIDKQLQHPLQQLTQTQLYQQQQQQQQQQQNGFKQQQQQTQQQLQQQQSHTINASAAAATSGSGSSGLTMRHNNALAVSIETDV", "experiment": "Two-electrode voltage-clamp, X. laevis oocytes expressing Shaker IR", "type": "cell-based, insect", "settings": "mean ± standard error", "experimental": "as §1, §2, §3"}, "rKV1.1": {"biological_target": "T3, rKV1.1 (Rattus norvegicus, UniProt P10499)", "T3 construct": "expressed in transfected cells; host or cells: Xenopus laevis oocytes injected with cRNA", "T3 sequence (P10499 whole entry)": "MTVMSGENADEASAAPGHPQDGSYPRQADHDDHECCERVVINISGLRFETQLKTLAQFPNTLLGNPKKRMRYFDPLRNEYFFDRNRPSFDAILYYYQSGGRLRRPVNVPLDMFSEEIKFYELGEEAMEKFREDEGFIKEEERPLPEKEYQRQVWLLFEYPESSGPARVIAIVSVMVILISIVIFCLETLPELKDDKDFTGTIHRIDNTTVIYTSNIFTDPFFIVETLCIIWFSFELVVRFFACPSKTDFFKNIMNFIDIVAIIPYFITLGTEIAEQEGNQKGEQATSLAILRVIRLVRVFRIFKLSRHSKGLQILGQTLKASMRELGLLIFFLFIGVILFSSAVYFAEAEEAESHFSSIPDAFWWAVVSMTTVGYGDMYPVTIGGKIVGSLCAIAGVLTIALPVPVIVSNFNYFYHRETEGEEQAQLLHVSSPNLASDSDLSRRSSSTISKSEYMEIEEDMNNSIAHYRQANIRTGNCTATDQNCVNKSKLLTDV", "experiment": "Two-electrode voltage-clamp, X. laevis oocytes expressing rKV1.1", "type": "cell-based", "settings": "mean ± standard error", "experimental": "as §1, §2, §3"}, "[1]": {"system": "KV1.1–KV1.6, KV2.1, KV3.1, KV4.2, KV4.3, hERG and Shaker IR", "experiment": "Electrophysiological screening on 12 cloned KV channel isoforms in X. laevis oocytes", "type": "cell-based, rat, human, insect", "experimental": "The pharmacological profile of BcsTx-1 and -2 were determined on a wide range of twelve KV channels (rKV1.1, rKV1.2, hKV1.3, rKV1.4, rKV1.5, rKV1.6, rKV2.1, rKV3.1, rKV4.2, rKV4.3, hERG and the insect channel Shaker IR; r: rat and h: human). Channels were expressed in X. laevis oocytes, and their currents were recorded by using two-electrode voltage-clamp technique. BcsTx1 (0.5 µM) inhibited rKv1.1, rKv1.2, rKv1.3, rKv1.6 and Shaker IR channels with 44% ± 2%, 100%, 100%, 88% ± 3% and 64% ± 4%, respectively (Figure 6). […] Type 1 toxins, such as BgK and ShK, have been extensively characterized. […] Some of the other type 1 toxins were indirectly assayed by competitive inhibition of the binding of ^125I-dendrotoxins, allowing the conclusion that they will show activity on KV1.1, KV1.2 and/or KV1.6, since dendrotoxins only block the current of these KV channels. […] Thus, it is worth mentioning that our work represents the first electrophysiological characterization of type 1 sea anemone toxin activity on cloned Shaker IR insect channel.\nas §1\nTwo-electrode voltage-clamp recordings were performed at room temperature (18–22 °C) using a Geneclamp 500 amplifier (Molecular Devices, Sunnyvale, CA, USA) controlled by a pClamp data acquisition system (Axon Instruments, Union City, CA, USA). Whole-cell currents from oocytes were recorded from 1 to 3 days after injection. Bath solution was the same ND96 solution described above. Voltage and current electrodes were filled with 3 M KCl. Resistances of both electrodes were kept between 0.8 and 1.0 ΩM. The elicited currents were filtered at 500 Hz using a four-pole lowpass Bessel filter. Leak subtraction was performed using a −P/4 protocol. KV1.1–KV1.6 and Shaker IR currents were evoked by 500 ms depolarizations to 0 mV, followed by a 500 ms pulse to −50 mV, from a holding potential of −90 mV. Current traces of hERG channels were elicited by applying a +40 mV prepulse for 2 s, followed by a step to −120 mV for 2 s. KV3.1, KV 4.2 and KV4.3 currents were elicited by 500 ms pulses to +20 mV from a holding potential of −90 mV. To assess the concentration-response relationships, data were fitted with the Hill equation: y = 100/[1 + (EC50/[toxin])h] (1) where y is the amplitude of the toxin-induced effect, EC50 is the toxin concentration at half maximal efficacy, [toxin] is the toxin concentration and h is the Hill coefficient. In order to investigate the current-voltage relationship, current traces were evoked by 10 mV depolarization steps from a holding potential of −90 mV. The activation curves were fitted with a Boltzmann relationship of the form: 1/(1 + e^[−(V − V^1/2)/^S^]) (2) where V1/2 is the voltage for half-maximal activation and s is the slope factor. The activation kinetics were obtained by mono-exponential fits to the raw current traces."}, "[2]": {"settings": "TEVC, 18–22 °C, ND96 pH 7.4, 500 ms depolarizations to 0 mV from −90 mV, Hill fit, n ≥ 3"}}, "note": "Where a SMILES comes first, the peptide text is derived from it. Bridges are numbered along the chain shown (N, C = ends)."}
{"smiles": "CC(C)C[C@@H]1NC(=O)[C@H](CCCCN)NC(=O)[C@H](C)NC(=O)[C@H](Cc2c[nH]cn2)NC(=O)[C@H](CCC(N)=O)NC(=O)[C@@H]2CSSC[C@@H]3NC(=O)[C@H](CC(N)=O)NC(=O)[C@H](C)NC(=O)[C@H](CCCNC(=N)N)NC(=O)[C@H](Cc4ccc(O)cc4)NC(=O)[C@H](CCCCN)NC(=O)[C@H](CCC(N)=O)NC(=O)[C@H](CO)NC(=O)[C@H](CC(N)=O)NC(=O)[C@H](CCCCN)NC(=O)[C@H](CSSC[C@H](NC(=O)[C@H]([C@@H](C)O)NC(=O)[C@H](CCCCN)NC(=O)[C@H](C)NC3=O)C(=O)NCC(=O)N3CCC[C@H]3C(=O)N[C@H](C(=O)O)CSSC[C@H](NC(=O)[C@H](C)N)C(=O)N[C@@H](CCCCN)C(=O)N[C@@H](CC(=O)O)C(=O)NCC(=O)N[C@@H](Cc3ccccc3)C(=O)N3CCC[C@H]3C(=O)N[C@@H]([C@@H](C)O)C(=O)N[C@@H](C)C(=O)N[C@@H]([C@@H](C)O)C(=O)N2)NC(=O)[C@H](CC(N)=O)NC(=O)CNC(=O)[C@H](C(C)C)NC1=O", "note": "[BcsTx2] (H-ACKDGFPTATCQHAKLVGNCKNSQKYRANCAKTCGPC-OH; disulfide 2-37, 11-30, 20-34; C-terminus assumed)", "values": [{"measurement": "inhibition at 3 µM", "setting": "rKV1.6; 3 µM, n ≥ 3, read-out: inhibition of rKV1.6 current", "result": 98, "unit": "%"}, {"measurement": "IC50", "setting": "rKV1.6; [2]", "result": "7.76 ± 1.9", "unit": "nM"}, {"measurement": "inhibition at 3 µM", "setting": "Shaker IR; 3 µM, n ≥ 3, read-out: inhibition of Shaker IR current", "result": 94, "unit": "%"}, {"measurement": "IC50", "setting": "Shaker IR; [2]", "result": "49.1 ± 3.44", "unit": "nM"}, {"measurement": "inhibition at 3 µM", "setting": "rKV1.1; 3 µM, n ≥ 3, read-out: inhibition of rKV1.1 current", "result": 96, "unit": "%"}, {"measurement": "IC50", "setting": "rKV1.1; [2]", "result": "14.4 ± 2.61", "unit": "nM"}, {"measurement": "selectivity among KV channels (in words)", "setting": "[1]; 3 µM, 12 KV isoforms", "result": "selectively blocks Shaker channels subfamily"}, {"measurement": "potency class on KV channels (in words)", "setting": "[1]; summary of IC50 values, compared with BgK and type 2 toxins", "result": "within the nanomolar range"}, {"measurement": "affinity/potency order among KV channels (in words)", "setting": "[1]; summary of the electrophysiological characterization", "result": "potently blocked rKv1.6 over hKv1.3, rKv1.1, Shaker IR and rKv1.2"}]}
